Counter-ions that a name gives are not always drawn.
Columns and labels:
[1] = Buffering capacity assay (NaOH titration, phenol red); type: physicochemical; conditions: high concentrations of metabolite in potassium phosphate buffer with phenol red
Protocol: Known concentrations of sodium hydroxide were added to each well of a 96 well plate in combination with candidate dampening metabolite of interest buffered 1:10 in potassium phosphate buffer pH7. 0.01% phenol red was added to each well, and absorbance (OD562) was measured in a Synergy H1 plate reader (BioTek).

P. mirabilis [2] = assay: In vitro glass “bladder” model of catheter encrustation; type: cell-based, Proteus mirabilis; conditions: for crystalline biofilm formation / Magnesium and phosphorus precipitation on catheter segments (ICP-OES) / catheter biofilm biomass (crystal violet) vs untreated P. mirabilis: 24 h; for crystalline biofilm formation: alone: 1.25 mM AHA, 12.5 mM histamine, 12.5 mM 4-imidazole acetate; for P. mirabilis CFUs in effluent over time / urease-mediated pH increase: tested individually; for urease-mediated pH increase: dose response
Protocol: A Foley catheter is inserted aseptically into the vessel through an opening at the base, the balloon is inflated, and the catheter is attached to a catheter drainage bag (Fig. 7A). The “bladder” is supplied with sterile AUM at a physiologically relevant flow rate via peristaltic pump from a media reservoir, the “kidney” (Fig. 7A). An initial bacterial inoculum of 10^8 CFU of P. mirabilis was added to the AUM in the “bladder” inner chamber to model robust bacteriuria, followed by initiation of flow (Fig. 7B). The performance of urease-dampening metabolites was evaluated as a reduction in 1) effluent AUM pH over the 24 h study period, and 2) crystalline biofilm formation and ion precipitation on catheter segments 24 h post inoculation. Urease-dampening metabolites and AHA were introduced into the system by direct dissolution into the AUM reservoirs. For each study, both positive (untreated P. mirabilis) and negative (untreated P. mirabilis urease negative mutant) controls were included. Effluent urine samples were collected at 0, 3, 6, 9, 12 and 24 h post inoculation. This preclinical model of catheter encrustation was modified to assess whether prophylactic administration of urease-dampening metabolites increases efficacy of antimicrobials against catheter biofilms, as outlined in Fig. 9A. Each experiment was performed in triplicate. Full details of experimental set up, sample collection, and processing are provided below and in Supplementary Materials.
A previously described glass “bladder” model was used, in which a 500 mL water-jacketed glass vessel is maintained at 37 °C via a circulating water bath, a Foley catheter is inserted and inflated, and artificial urine medium (AUM) is supplied into the “bladder” at a constant flow rate (0.75-1.0 mL/min) through a peristaltic pump[55],[56]. For consistency with the in vitro urease activity assays and the physiologic range of urea in healthy human urine, AUM was supplemented with 500 mM urea[57]. Urease-dampening metabolites of interest were directly dissolved in AUM 500 mM urea, adjusted to a pH of 5.8, and filter sterilized via a 0.2μm filter. “Bladders” were inoculated with 10^8 CFUs of P. mirabilis. Samples were collected from the catheter port at 0, 3, 6, 9, 12, and 24 hours to monitor pH and bacterial CFUs. Catheters segments were processed for CFUs, crystal violet staining of biofilm biomass, and ion composition at 24 h. Full details are provided in the Supplementary Methods.
236 and the segments were air dried for 15 min. Catheter segments were stained with 1.0 ml 0.1%
237 crystal violet for 10 min, washed by gentle dunking in 1X phosphate-buffered saline (PBS) to
238 remove excess stain, and solubilized in a microcentrifuge tube containing 750μL of 1% SDS
239 95% ethanol and vortexed for 5 minutes. Crystal violet absorbance (OD570) was measured in a
240 BioTek Synergy H1 microplate reader and blanked using cell-free control wells for each biofilm
243 Catheter segment biofilm viability. Catheter segments were washed by gentle dunking in 1X
244 phosphate-buffered saline (PBS) to remove any remaining planktonic bacteria and residual AUM
245 from the catheter lumen. Catheter segments were then placed in a microcentrifuge tube
246 containing 1mL of 1X PBS and vortexed for 5 minutes to solubilize the biofilm. Samples
247 underwent serial 10-fold dilutions and were spiral plated (Eddy Jet 2; Neutec Group Inc.,
248 Farmingdale, NY) onto low-salt LB agar for enumeration of CFU using a ProtoCOL 3 automated
249 colony counter (Synbiosis).
251 Catheter segment elemental composition. Catheter segments were placed in a microcentrifuge

P. mirabilis [3] = assay: Growth and viability of P. mirabilis incubated in dampening metabolites; type: cell-based, Proteus mirabilis
Protocol: 345 Supplementary Figure 5. Growth and viability of P. mirabilis incubated in dampening
346 metabolites. (A-B) P. mirabilis was cultured for ~18 hours in LB broth, then diluted 1:100 into
347 fresh LB broth with (A) the highest concentration of each dampening metabolites that was tested
348 for urease-dampening activity or (B) serial dilutions of D-imidazole lactate. Bacterial
349 suspensions were incubated at 37 °C with double-orbital shaking, and OD600 was measured
350 every 15 minutes for 18 hours. Representative growth curves (A-B) show means and standard
351 deviations from three technical replicates. (C-E) Viability of P. mirabilis incubated in serial
352 dilutions of D-imidazole lactate. Overnight cultures were subcultured to mid log phase, washed
353 in potassium phosphate buffer, and diluted 1:10 in either (C,D) potassium phosphate buffer or
354 human urine (E) with and without D-imidazole lactate. Samples were incubated at 37°C with
(§1) (1 picture or pasted object on this page, not shown here)

M. morganii urease = assay: Urease activity assay, whole cell M. morganii TA43; type: cell-based, Morganella morganii
Protocol: (§15) Urease activity was measured as described previously in triplicate with at least three biological replicates[21]. Briefly, bacteria were cultured for ~18 h in LB broth, concentrated to an OD600 of 4, washed once in saline, and diluted (1:10 for P. mirabilis and 1:50 for P. stuartii and M. morganii) into candidate dampening metabolites in potassium phosphate buffer or human urine pH7 and supplemented with 500 mM urea and 0.01% phenol red. Bacterial suspensions were distributed into a 96-well plate, incubated at 37 °C with double-orbital shaking in a Synergy H1 plate reader (BioTek), and absorbance (OD562) was measured every 60 seconds for 180 minutes. Isogenic urease mutants (Supplementary Data 1) served as negative controls for P. mirabilis and P. stuartii and a vehicle control served as a negative control for M. morganii.

P. stuartii urease = assay: Urease activity assay, whole cell P. stuartii BE2467; type: cell-based, Providencia stuartii
Protocol: as §15

P. stuartii BE2467 = assay: Growth and viability of P. stuartii in dampening metabolites; type: cell-based, Providencia stuartii
Protocol: (§2) 478 Supplementary Figure 20. Growth of M. morganii, P. stuartii and UTI MRSA incubated in
(§3) 479 dampening metabolites. M. morganii TA43 (A,D,G), P. stuartii BE2467(B,E,H), UTI MRSA
(§4) 480 (C,F,I) were incubated in urease dampening metabolites to assess impact on growth. Bacteria
(§5) 481 were cultured for ~18 hours in LB (Mm and Ps) or BHI (MRSA) broth, then diluted 1:100 into
(§6) 482 fresh broth with (A-C) the highest concentrations of dampening metabolites assessed for urease
(§7) 483 inhibition or (D-F) serial dilutions of D-imidazole lactate. Bacterial suspensions were incubated
(§8) 484 at 37 °C with double-orbital shaking, and OD600 was measured every 15 minutes for 18 hours.
(§9) 485 Error bars represent mean ± standard deviation (SD) from at least 3 technical replicates, and
(§10) 486 graphs are representative of 3 independent biologic experiments. (G-I) Viability of incubated in
(§11) 487 Mm, Ps or MRSA incubated in serial dilutions of D-imidazole lactate. Overnight cultures were
as §1
(§12) 488 subcultured to mid log phase, washed in potassium phosphate buffer, and diluted 1:10 in
(§13) 489 potassium phosphate buffer with and without D-imidazole lactate. Samples (n=3) were incubated
(§14) 490 at 37°C with aeration for one hour then plated and enumerated for colony forming units (CFU).

UTI MRSA = assay: Growth and viability of UTI MRSA in dampening metabolites; type: cell-based, Staphylococcus aureus
Protocol: as §2, §3, §4, §5, §6, §7, §8, §9, §10, §11, §1, §12, §13, §14

isolated rabbit bladders = conditions: cited from earlier work
[4] = alone: 5 mM AHA, 25 mM histamine, 25 mM 4-imidazole acetate
[5] = alone: 5 mM AHA, 25 mM histamine, 25 mM 4-imidazole acetate, nucleation point ~ pH 8
[6] = incubation in potassium phosphate, CFU

Compound	buffering capacity: absorbance (OD562) across NaOH concentrations [1]	crystalline biofilm formation (P. mirabilis [2])	Magnesium and phosphorus precipitation on catheter segments (ICP-OES) (P. mirabilis [2]; [4])	catheter biofilm biomass (crystal violet) vs untreated P. mirabilis (P. mirabilis [2]; [4])	pH of AUM collected from “bladders” over 24 h (P. mirabilis [2]; alone, lower concentrations)	pH of AUM collected from “bladders” over 24 h (P. mirabilis [2]; [5])	P. mirabilis CFUs in effluent over time (P. mirabilis [2])	urease-mediated pH increase (P. mirabilis [2])	Growth of P. mirabilis in LB broth (P. mirabilis [3]; LB broth, 18 hours, OD600)	antimicrobial activity against P. mirabilis (P. mirabilis [3]; incubation in human urine)	antimicrobial activity against P. mirabilis (P. mirabilis [3]; incubation in potassium phosphate)	urease activity in M. morganii (M. morganii urease)	urease activity in P. stuartii (P. stuartii urease)	growth of P. stuartii (P. stuartii BE2467; LB broth)	antimicrobial activity against P. stuartii BE2467 (P. stuartii BE2467; [6])	growth of UTI MRSA (UTI MRSA; BHI broth)	antimicrobial activity against UTI MRSA (UTI MRSA; [6])	reduction in CFUs of UTI MRSA (UTI MRSA; one h incubation in potassium phosphate buffer)	response of isolated rabbit bladders (isolated rabbit bladders)
Cl.O=C(O)Cc1cnc[nH]1 [4-imidazole acetate, 2-(1H-Imidazol-5-yl)acetic acid hydrochloride]	consistent reduction in absorbance compared to the control	no impact on crystalline biofilm formation	reduced, although the reduction was not statistically significant	significantly reduced biofilm biomass	failed to restrict pH	never surpassed the nucleation point	no meaningful differences between CFUs over time	perturbed urease-mediated pH increase in a dose-dependent manner											
O.O=C(O)[C@H](O)Cc1cnc[nH]1 [D-imidazole lactate, D-imidazolelactic acid hydrate]									perturbed	less-pronounced activity	robust antimicrobial activity	most potent urease inhibition	most potent urease inhibition	perturbed growth	robust antimicrobial activity	perturbed growth	less-pronounced antimicrobial activity	one log reduction	
NCCc1c[nH]cn1 [Histamine, histamine dihydrochloride]		no impact on crystalline biofilm formation	reduced, although the reduction was not statistically significant	significantly reduced biofilm biomass	failed to restrict pH	never surpassed the nucleation point	no meaningful differences between CFUs over time	perturbed urease-mediated pH increase in a dose-dependent manner											induce a contractile response
